Consider 2 compounds from BindingDB's records for patent US11453697 (Merck Sharp & Dohme, 2022).

In the assay the target is Stimulator of interferon genes protein [1-379,R71H,G230A,H232R,R293Q] (Homo sapiens, UniProt Q86WV6, G230A/H232R/R293Q/R71H). Description: 3H-cGAMP Filtration Binding Assay (HAQ STING). As to the method:
Compound and membrane then preincubated for 60 min at RT to allow compound binding to equilibrate. Following equilibration, 8 nM of [3H] c-GAMP ligand was prepared by diluting into assay buffer, and 50 uL of this working stock was then manually added to each well of the assay plate. […] The filter plates were then dried at 55° C. for 30 min using a pressurized VWR oven before 30 uL of Ultima GoldF scintillate was added to each well. Tritium levels for each reaction well were then measured using a PerkinElmer TopCount plate reader.

Chain of Stimulator of interferon genes protein [1-379,R71H,G230A,H232R,R293Q] (Q86WV6 whole entry R71H/G230A/H232R/R293Q, looked up): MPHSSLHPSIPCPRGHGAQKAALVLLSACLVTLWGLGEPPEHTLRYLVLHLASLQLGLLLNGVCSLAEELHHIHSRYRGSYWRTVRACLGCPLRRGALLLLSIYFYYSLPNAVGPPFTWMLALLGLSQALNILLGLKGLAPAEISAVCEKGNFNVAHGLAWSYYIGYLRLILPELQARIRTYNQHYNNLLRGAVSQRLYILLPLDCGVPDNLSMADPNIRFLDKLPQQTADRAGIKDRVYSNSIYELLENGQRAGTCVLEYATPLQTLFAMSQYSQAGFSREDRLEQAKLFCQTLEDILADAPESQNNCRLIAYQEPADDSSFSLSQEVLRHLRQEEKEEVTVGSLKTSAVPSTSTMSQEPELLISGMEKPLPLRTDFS

In general, EC50 refers to the concentration giving half of the maximal effect. `Nc1nc2c(ncn2[C@@H]2O[C@@H]3COP(=O)(S)OC4[C@@H](COP(=O)(S)O[C@H]2C3)O[C@@H](n2nnc3c(N)ncnc32)[C@H]4F)c(=O)[nH]1` (some centres not stated) [US11453697, Example 133] returned an EC50 of 61.4 nM. To `Nc1nc2c(ncn2[C@@H]2O[C@@H]3COP(=O)(S)O[C@H]4[C@H](F)[C@H](n5cnc6c(N)ncnc65)O[C@@H]4COP(=O)(O)O[C@@H]2[C@@H]3F)c(=O)[nH]1` (some centres not stated) [US11453697, Example 143] belongs 1.05 nM.
